The nature of data set [1]: Rat PK study of P-1496 free base, arginine and lysine complex. Format: in vivo, Sprague-Dawley rats. The settings on record: for AUC∞/dose / Cmax/dose: Table 10B, rats; for biopharmaceutical properties, comparison in words: rat PK, relative to P-1496 free base. The arrangement: AUC∞/dose: unit not given here. Here is the method: A PK study was carried out in Sprague-Dawley rats on the arginine or lysine complex of propane-1-sulfonic acid {2,4-difluoro-3-[5-(2-methoxy-pyrimidin-5-yl)-1H-pyrrolo[2,3-b]pyridine-3-carbonyl]-phenyl}-amide P-1496 (Murigenics, Berkeley, Calif.), dosing via […], with sampling of approximately 250 μL of blood via jugular veing in Lithium heparin tubes at 30 minutes, 1, 3, 6, 8, 12, 24, 36 and 48 hours. Blood samples were centrifuged at 4° C. for 10 minutes at RCF of 1,000, plasma was stored at […] and shipped frozen for analytical analysis (Integrated Analytical Solutions, Inc., Berkeley, Calif.).
Solid formulations were taken up in PEG400:water at 200 mg/cc for free base, arginine, and lysine complexes, and also at 400 mg/cc for lysine complex and dosed by oral gavage 10 mL/kg to provide the P-1496 doses indicated in Table 10B.

Data set [2] can be described thus: Intrinsic dissolution rate in simulated intestinal fluid (SIF). Format: physicochemical. The settings on record: pellet, 310 nm, versus form 2 polymorph free base. Here is the method:
(§1) The intrinsic dissolution rate of a similarly prepared substantially amorphous arginine complex of P-1167 was compared to that of the form 2 polymorph in simulated gastric fluid (SGF) without enzyme and in simulated intestinal fluid (SIF). A pellet of test sample was dissolved in the appropriate fluid, and the UV absorbance as a function of time was measured at 254 nm (SGF) or 310 nm (SIF) and plotted. […] As such, significant improvement of dissolution of the arginine complex is shown, which is likely to be improved further by processing the complex to a completely amorphous form.

Data set [3] is described as follows: Intrinsic dissolution rate in simulated gastric fluid (SGF) without enzyme. It counts as physicochemical. The settings on record: pellet, 254 nm. Here is the method: as §1
In data set [4] the target is C-Raf (Homo sapiens, UniProt P04049). Nature of the data set: Kinase activity assay, C-Raf.
For data set [5], the target named is B-Raf V600E (Homo sapiens, UniProt P15056, V600E). Nature of the data set: Kinase activity assay, B-Raf V600E. The settings on record: read-out: activity toward kinase B-Raf V600E, IC50. It counts as biochemical.
Data set [6] deals with PI3Kα (Homo sapiens, UniProt P42336). Kind of data set: Kinase activity assay, PI3Kα.
Data set [7] deals with Kit (Homo sapiens, UniProt P10721). Kind of data set: Kinase activity assay, Kit.
In data set [8] the target is Src (Homo sapiens, UniProt P12931). Kind of data set: Kinase activity assay, Src.
Data set [9] addresses B-Raf (Homo sapiens, UniProt P15056). Kind of data set: Kinase activity assay, B-Raf. Format: biochemical. The settings on record: read-out: activity toward kinase B-Raf, IC50.
For data set [10], the target named is PI3Kγ (Homo sapiens, UniProt P48736). Nature of the data set: Kinase activity assay, PI3Kγ.
Data set [11] concerns the target Kdr (Homo sapiens, UniProt P35968). Kind of data set: Kinase activity assay, Kdr.
Data set [12] has as its target MAP4K4 (Homo sapiens, UniProt O95819). Kind of data set: Kinase activity assay, MAP4K4.
The target in data set [13] is T1, A-Raf (Homo sapiens, UniProt P10398).
T1 sequence (P10398 1-606): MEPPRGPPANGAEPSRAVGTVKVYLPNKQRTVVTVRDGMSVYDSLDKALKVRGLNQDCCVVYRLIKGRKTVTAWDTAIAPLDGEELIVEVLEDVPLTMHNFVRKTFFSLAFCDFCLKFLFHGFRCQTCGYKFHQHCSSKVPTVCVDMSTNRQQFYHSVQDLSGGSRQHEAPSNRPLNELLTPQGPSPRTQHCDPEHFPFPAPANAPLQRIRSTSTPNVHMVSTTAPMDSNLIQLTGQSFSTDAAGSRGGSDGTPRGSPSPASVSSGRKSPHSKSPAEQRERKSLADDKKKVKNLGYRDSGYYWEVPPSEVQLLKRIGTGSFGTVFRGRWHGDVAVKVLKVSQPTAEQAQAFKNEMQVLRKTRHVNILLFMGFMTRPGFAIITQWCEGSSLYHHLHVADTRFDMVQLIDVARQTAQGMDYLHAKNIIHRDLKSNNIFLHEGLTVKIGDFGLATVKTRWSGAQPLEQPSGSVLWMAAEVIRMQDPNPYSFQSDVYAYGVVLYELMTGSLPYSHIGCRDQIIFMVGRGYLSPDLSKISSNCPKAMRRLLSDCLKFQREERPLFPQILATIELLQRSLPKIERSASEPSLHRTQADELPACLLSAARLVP
Kind of data set: Kinase activity assay, A-Raf.

The target of data set [14] is TrkA (Homo sapiens, UniProt P04629). Kind of data set: Kinase activity assay, TrkA.
Data set [15] deals with Fms (Homo sapiens, UniProt P07333). Nature of the data set: Kinase activity assay, Fms.
The target of data set [16] is PI3Kδ (Homo sapiens, UniProt O00329). Nature of the data set: Kinase activity assay, PI3Kδ.
The nature of data set [17]: Polymorph stability of P-1167 forms 1 and 2. It counts as physicochemical. The settings on record: P-1167 form 1 versus form 2. The text has this: Propane-1-sulfonic acid {3-[5-(4-chloro-phenyl)-1H-pyrrolo[2,3-b]pyridine-3-carbonyl]-2,4-difluoro-phenyl}-amide (P-1167) may be prepared according to methods known in the art, for example, using methods described in U.S. patent application Ser. No. 11/473,347 (see also, PCT publication WO2007002433), the disclosure of which is hereby incorporated by reference. Compound P-1167 can exist in polymorphic forms, for example as polymorphic forms 1 or 2, where such polymorphic forms may be isolated as the substantially pure polymorph. The desired polymorphic form may be prepared, for example, by using appropriate crystallization conditions. For example, Form 1 was isolated by recrystallization from acetone/absolute ethanol (e.g. 1:1 to 5:1, preferably 2:1 by volume). […] The substantially pure isolated polymorphic forms were characterized by X-Ray Powder Diffraction (XRPD), differential scanning calorimetry (DSC) and infrared spectroscopy.

The mark [18] stands for this setting: dose 100, in PEG400:water by oral gavage 10 mL/kg.
[19] abbreviates: dose 200, in PEG400:water by oral gavage 10 mL/kg.

pIC50: −log10 of the molar value. Some results are limits rather than exact numbers.

Sequence of B-Raf (P15056 whole entry): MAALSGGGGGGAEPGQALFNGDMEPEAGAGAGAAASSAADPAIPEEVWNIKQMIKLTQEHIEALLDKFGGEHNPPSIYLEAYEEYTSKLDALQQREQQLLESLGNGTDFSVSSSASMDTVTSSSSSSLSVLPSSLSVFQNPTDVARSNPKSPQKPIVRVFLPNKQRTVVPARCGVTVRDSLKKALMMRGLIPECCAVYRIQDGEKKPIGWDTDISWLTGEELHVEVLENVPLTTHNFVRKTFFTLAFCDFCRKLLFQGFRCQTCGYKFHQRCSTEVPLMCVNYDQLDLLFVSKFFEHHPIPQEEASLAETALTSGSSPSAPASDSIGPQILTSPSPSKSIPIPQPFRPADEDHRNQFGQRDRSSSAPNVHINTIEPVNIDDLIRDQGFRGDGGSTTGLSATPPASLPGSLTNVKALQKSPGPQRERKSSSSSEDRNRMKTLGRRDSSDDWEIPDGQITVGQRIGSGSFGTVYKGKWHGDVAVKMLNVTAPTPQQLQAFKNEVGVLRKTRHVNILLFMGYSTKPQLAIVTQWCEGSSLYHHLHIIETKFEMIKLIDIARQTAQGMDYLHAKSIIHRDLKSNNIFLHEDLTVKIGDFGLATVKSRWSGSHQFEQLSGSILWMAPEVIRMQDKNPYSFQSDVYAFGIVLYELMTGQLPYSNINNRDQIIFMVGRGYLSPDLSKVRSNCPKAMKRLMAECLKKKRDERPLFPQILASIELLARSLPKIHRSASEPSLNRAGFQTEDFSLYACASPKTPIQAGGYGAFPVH
Sequence of Kdr (P35968 20-1356): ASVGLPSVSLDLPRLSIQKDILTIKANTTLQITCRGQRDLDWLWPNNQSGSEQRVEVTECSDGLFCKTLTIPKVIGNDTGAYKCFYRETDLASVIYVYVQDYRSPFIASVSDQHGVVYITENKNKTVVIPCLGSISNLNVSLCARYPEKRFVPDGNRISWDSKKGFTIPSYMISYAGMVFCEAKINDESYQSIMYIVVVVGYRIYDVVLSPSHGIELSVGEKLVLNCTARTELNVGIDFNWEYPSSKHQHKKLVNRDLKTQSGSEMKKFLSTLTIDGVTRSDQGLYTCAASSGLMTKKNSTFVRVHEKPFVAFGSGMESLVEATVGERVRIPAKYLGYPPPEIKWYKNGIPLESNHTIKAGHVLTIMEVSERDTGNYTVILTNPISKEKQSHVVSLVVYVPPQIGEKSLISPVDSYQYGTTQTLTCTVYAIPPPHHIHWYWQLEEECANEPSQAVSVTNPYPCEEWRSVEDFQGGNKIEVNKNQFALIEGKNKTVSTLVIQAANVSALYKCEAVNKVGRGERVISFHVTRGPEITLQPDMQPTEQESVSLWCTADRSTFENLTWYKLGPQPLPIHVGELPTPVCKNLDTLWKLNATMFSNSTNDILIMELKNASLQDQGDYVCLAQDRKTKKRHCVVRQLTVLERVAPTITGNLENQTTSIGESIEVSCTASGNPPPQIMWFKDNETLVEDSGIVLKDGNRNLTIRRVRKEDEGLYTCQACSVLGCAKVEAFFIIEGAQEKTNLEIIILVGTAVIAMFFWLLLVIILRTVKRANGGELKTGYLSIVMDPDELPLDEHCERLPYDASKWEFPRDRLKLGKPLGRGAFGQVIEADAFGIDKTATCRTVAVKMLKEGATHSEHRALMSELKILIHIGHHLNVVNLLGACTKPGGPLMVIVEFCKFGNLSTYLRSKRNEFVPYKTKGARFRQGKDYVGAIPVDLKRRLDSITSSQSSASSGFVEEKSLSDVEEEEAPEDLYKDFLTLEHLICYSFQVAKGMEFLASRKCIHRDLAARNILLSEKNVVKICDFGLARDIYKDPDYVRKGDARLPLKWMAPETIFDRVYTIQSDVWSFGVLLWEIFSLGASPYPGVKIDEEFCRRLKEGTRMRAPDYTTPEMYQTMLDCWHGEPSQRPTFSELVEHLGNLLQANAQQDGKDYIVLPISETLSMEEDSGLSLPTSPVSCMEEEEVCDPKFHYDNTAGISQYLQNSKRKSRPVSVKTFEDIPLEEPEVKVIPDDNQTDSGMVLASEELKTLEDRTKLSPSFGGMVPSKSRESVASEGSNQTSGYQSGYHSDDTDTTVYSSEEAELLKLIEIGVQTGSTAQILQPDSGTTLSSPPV
Sequence of PI3Kα (P42336 whole entry): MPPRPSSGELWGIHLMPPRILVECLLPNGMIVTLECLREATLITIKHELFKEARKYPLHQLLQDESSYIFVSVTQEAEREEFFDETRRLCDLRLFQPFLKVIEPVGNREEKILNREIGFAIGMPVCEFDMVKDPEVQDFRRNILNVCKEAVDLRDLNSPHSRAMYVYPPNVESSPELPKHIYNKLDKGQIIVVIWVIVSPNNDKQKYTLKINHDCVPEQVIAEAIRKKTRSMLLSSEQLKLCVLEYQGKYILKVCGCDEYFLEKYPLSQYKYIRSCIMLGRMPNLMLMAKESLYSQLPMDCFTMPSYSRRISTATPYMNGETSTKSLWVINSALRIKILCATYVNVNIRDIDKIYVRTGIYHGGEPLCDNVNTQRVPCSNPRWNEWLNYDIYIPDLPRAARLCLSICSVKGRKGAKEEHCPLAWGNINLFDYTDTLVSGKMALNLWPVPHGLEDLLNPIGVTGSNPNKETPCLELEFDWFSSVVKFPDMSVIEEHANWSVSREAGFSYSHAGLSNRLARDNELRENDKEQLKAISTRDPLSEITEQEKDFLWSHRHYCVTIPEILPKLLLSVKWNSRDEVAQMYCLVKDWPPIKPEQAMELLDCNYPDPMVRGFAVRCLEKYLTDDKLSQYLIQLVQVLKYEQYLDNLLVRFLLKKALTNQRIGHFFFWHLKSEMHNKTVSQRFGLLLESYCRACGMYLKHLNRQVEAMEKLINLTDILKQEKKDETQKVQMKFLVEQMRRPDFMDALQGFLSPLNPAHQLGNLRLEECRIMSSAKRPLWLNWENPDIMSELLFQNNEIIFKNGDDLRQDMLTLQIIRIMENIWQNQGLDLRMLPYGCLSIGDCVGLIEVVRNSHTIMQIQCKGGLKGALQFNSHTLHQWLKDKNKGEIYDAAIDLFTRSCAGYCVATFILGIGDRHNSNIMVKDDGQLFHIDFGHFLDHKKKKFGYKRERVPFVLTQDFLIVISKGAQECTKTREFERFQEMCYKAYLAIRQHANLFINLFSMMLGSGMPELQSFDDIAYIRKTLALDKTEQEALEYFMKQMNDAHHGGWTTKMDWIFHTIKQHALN
Sequence of PI3Kα (P27986 whole entry partner): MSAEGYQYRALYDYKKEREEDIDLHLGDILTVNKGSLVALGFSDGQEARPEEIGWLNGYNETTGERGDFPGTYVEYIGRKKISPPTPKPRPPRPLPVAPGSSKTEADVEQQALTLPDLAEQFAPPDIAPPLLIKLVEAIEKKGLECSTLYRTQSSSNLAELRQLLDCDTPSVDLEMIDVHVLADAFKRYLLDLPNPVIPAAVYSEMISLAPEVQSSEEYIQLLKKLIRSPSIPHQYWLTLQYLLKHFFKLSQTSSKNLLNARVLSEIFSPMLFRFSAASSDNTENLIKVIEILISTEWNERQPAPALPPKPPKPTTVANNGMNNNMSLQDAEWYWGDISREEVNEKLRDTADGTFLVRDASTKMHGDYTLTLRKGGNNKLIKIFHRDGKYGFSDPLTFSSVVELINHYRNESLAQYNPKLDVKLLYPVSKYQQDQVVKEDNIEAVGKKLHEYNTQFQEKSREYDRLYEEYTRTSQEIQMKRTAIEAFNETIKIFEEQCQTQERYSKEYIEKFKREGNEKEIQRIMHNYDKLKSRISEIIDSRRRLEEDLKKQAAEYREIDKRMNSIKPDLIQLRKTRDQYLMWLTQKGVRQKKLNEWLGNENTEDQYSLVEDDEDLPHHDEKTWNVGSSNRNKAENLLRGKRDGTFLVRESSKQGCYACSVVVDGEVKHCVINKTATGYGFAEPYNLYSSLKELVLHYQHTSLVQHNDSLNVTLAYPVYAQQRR
Sequence of B-Raf V600E (P15056 whole entry V600E): as the sequence (P15056 whole entry) above, with V600E counted along it
Sequence of PI3Kγ (P48736 whole entry): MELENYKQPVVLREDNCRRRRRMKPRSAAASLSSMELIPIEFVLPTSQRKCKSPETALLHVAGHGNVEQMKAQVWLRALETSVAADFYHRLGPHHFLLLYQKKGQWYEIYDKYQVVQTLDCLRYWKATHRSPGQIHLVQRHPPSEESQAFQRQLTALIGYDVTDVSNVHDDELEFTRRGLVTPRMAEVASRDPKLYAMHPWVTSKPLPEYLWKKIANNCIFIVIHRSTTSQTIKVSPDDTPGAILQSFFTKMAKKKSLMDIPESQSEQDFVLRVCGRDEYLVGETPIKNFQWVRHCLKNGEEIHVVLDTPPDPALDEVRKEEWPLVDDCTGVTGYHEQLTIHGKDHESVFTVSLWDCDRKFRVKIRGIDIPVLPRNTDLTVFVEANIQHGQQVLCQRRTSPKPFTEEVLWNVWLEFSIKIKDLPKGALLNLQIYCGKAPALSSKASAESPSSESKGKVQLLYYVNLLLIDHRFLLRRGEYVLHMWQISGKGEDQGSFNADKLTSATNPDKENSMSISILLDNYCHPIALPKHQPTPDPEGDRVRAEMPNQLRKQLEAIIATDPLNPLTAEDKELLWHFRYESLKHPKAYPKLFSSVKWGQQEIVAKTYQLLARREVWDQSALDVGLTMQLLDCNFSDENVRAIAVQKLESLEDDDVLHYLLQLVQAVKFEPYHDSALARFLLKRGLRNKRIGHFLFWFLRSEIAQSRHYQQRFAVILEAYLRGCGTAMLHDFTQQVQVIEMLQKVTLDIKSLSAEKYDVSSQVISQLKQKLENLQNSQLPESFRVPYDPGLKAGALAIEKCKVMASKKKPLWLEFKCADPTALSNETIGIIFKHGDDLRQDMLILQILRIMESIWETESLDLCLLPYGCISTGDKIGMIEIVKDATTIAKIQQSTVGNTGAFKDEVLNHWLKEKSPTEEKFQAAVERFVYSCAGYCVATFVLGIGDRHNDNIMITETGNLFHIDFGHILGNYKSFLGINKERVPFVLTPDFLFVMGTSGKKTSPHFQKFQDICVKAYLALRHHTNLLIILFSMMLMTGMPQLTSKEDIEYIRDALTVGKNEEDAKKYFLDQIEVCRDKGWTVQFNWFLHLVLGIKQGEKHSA

For `CCCS(=O)(=O)Nc1ccc(F)c(C(=O)c2c[nH]c3ncc(-c4cnc(OC)nc4)cc23)c1F` [P-1496 lysine complex, propane-1-sulfonic acid {2,4-difluoro-3-[5-(2-methoxy-pyrimidin-5-yl)-1H-pyrrolo[2,3-b]pyridine-3-carbonyl]-phenyl}-amide], in data set [1] (setting [18]), the “AUC∞/dose” value is listed as 3,210 and the Cmax/dose is 283 (ng/mL)/(mg/kg). Moreover, in data set [1] (setting [19]), the “AUC∞/dose” value is reported as 2,750 and the Cmax/dose was 155 (ng/mL)/(mg/kg). Besides, in data set [1], the “biopharmaceutical properties, comparison in words” value is “improved biopharmaceutical properties”.

`CCCS(=O)(=O)Nc1ccc(F)c(C(=O)c2c[nH]c3ncc(-c4cnc(OC)nc4)cc23)c1F` [P-1496 arginine complex, propane-1-sulfonic acid {2,4-difluoro-3-[5-(2-methoxy-pyrimidin-5-yl)-1H-pyrrolo[2,3-b]pyridine-3-carbonyl]-phenyl}-amide]: in [1] (setting [18]), the “AUC∞/dose” value is recorded as 3,620 and the Cmax/dose was 159 (ng/mL)/(mg/kg). For the same compound, the “biopharmaceutical properties, comparison in words” value in data set [1] is reported as “improved biopharmaceutical properties”.

On to `CCCS(=O)(=O)Nc1ccc(F)c(C(=O)c2c[nH]c3ncc(-c4ccc(Cl)cc4)cc23)c1F` [arginine complex of P-1167, propane-1-sulfonic acid {3-[5-(4-chloro-phenyl)-1H-pyrrolo[2,3-b]pyridine-3-carbonyl]-2,4-difluoro-phenyl}-amide], for which the “UV absorbance in SIF (dissolution)” value in data set [2] is given as “substantially higher absorbance in SIF than the free base”. In [3], the “time of maximum absorbance in SGF” value is “approximately 200 minutes”. Moreover, in data set [3] (versus form 2 polymorph free base), the “maximum UV absorbance in SGF (dissolution)” value is given as “substantially greater than the free base”.

As for `CCCS(=O)(=O)Nc1ccc(F)c(C(=O)c2c[nH]c3ncc(-c4cnc(OC)nc4)cc23)c1F` [P-1496 free base, Propane-1-sulfonic acid {2,4-difluoro-3-[5-(2-methoxy-pyrimidin-5-yl)-1H-pyrrolo[2,3-b]pyridine-3-carbonyl]-phenyl}-amide], in [1] (setting [18]), the “AUC∞/dose” value is on record as 1,970 and the Cmax/dose was 106 (ng/mL)/(mg/kg).

For the compound `CCCS(=O)(=O)Nc1ccc(F)c(C(=O)c2c[nH]c3ncc(-c4ccc(C(N)=O)nc4)cc23)c1F` [P-2220, 5-{3-[2,6-Difluoro-3-(propane-1-sulfonylamino)-benzoyl]-1H-pyrrolo[2,3-b]pyridin-5-yl}-pyridine-2-carboxylic acid amide], the pIC50 in [4], in data set [5], in data set [6], in data set [7], in data set [8] and in data set [9] was no less than 5.00 in each case. Further, the pIC50 in [10], in data set [11], in [12] and in data set [13] was no less than 5.00 in each case.

Regarding `CCCS(=O)(=O)Nc1cccc(C(=O)c2c[nH]c3ncc(-c4cnc(OC)nc4)cc23)c1F` [P-2407, Propane-1-sulfonic acid {2-fluoro-3-[5-(2-methoxy-pyrimidin-5-yl)-1H-pyrrolo[2,3-b]pyridine-3-carbonyl]-phenyl}-amide], the pIC50 in data set [4], in data set [5], in data set [6], in [14], in [9] and in data set [10] was no less than 5.00 in each case. Further, the negative logarithm of the IC50 (pIC50) in data set [12] and in data set [13] was no less than 5.00 throughout.

Regarding `CCCS(=O)(=O)Nc1ccc(F)c(C(=O)c2c[nH]c3ncc(-c4cccc(S(=O)(=O)NC)c4)cc23)c1F` [P-2170, 3-{3-[2,6-Difluoro-3-(propane-1-sulfonylamino)-benzoyl]-1H-pyrrolo[2,3-b]pyridin-5-yl}-N-methyl-benzenesulfonamide], the pIC50 in [5], in data set [6], in data set [7], in data set [8], in [15] and in data set [16] was no less than 5.00 in each case. In addition, in [11], the pIC50 was no less than 5.00.

For `CCCS(=O)(=O)Nc1ccc(F)c(C(=O)c2c[nH]c3ncc(-c4ccc(Cl)cc4)cc23)c1F` [P-1167 Form 2, Propane-1-sulfonic acid {3-[5-(4-chloro-phenyl)-1H-pyrrolo[2,3-b]pyridine-3-carbonyl]-2,4-difluoro-phenyl}-amide], the “relative stability of polymorphic forms” value in data set [17] is listed as “more stable polymorph”.

Turning to `CCCS(=O)(=O)Nc1ccc(F)c(C(=O)c2c[nH]c3ncc(-c4cncc(S(C)(=O)=O)c4)cc23)c1F` [P-2188], the pIC50 in data set [5], in data set [6], in data set [16], in data set [9], in [10] and in data set [11] was no less than 5.00 each time.

For orientation: pIC50 means −log10 of the IC50, conventionally taken in molar units.

Source of the values: US20120122860A1, “SOLID FORMS OF SULFONAMIDES AND AMINO ACIDS” (Plexxikon, Inc., priority 2009, published 2012).
